According to ChEMBL document CHEMBL1201861, “Genomics of Drug Sensitity in Cancer screening data, Wellcome Trust Sanger Institute”:

Tests used:
SCC-3 = test: cells; format: functional, cell-based, Homo sapiens; details: Homo sapiens, SCC-3;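 further: cell viability assay measuring inhibition of SCC-3 cell growth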
Description: SANGER: Inhibition of human SCC-3 cell growth in a cell viability assay.

Raji = test: cells; format: functional, cell-based, Homo sapiens; details: Homo sapiens, Raji;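 further: cell viability assay measuring inhibition of Raji cell growth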
Description: SANGER: Inhibition of human Raji cell growth in a cell viability assay.

NCI-H2081 = test: cells; format: functional, cell-based, Homo sapiens; details: Homo sapiens, NCI-H2081;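 further: growth inhibition of human NCI-H2081 cells, read out with a cell viability assay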
Description: SANGER: Inhibition of human NCI-H2081 cell growth in a cell viability assay.

ECC4 = test: cells; format: functional, cell-based, Homo sapiens; details: Homo sapiens, ECC4;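 further: growth inhibition of ECC4 cells, read out with a cell viability assay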
Description: SANGER: Inhibition of human ECC4 cell growth in a cell viability assay.

RPMI 8402 = test: SANGER: Inhibition of human RPMI-8402 cell growth in a cell viability assay.; format: functional, cell-based; details: Homo sapiens, RPMI 8402
PF-382 = test: cells; format: functional, cell-based, Homo sapiens; details: Homo sapiens, PF-382
Description: SANGER: Inhibition of human PF-382 cell growth in a cell viability assay.

NCI-H2196 = test: cells; format: functional, cell-based, Homo sapiens; details: Homo sapiens, NCI-H2196;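 further: cell viability assay used as the readout of growth inhibition in NCI-H2196 cells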
Description: SANGER: Inhibition of human NCI-H2196 cell growth in a cell viability assay.

TE-15 = test: cells; format: functional, cell-based, Homo sapiens; details: Homo sapiens, TE-15;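 further: cell viability readout of growth inhibition in TE-15 cells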
Description: SANGER: Inhibition of human TE-15 cell growth in a cell viability assay.

REH = test: cells; format: functional, cell-based, Homo sapiens; details: Homo sapiens, REH;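 further: growth inhibition of REH cells determined with a cell viability read-out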
Description: SANGER: Inhibition of human REH cell growth in a cell viability assay.

KARPAS-422 = test: cells; format: functional, cell-based, Homo sapiens; details: Homo sapiens, KARPAS-422
Description: SANGER: Inhibition of human KARPAS-422 cell growth in a cell viability assay.

EB2 = test: cells; format: functional, cell-based, Homo sapiens; details: Homo sapiens, EB2;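 further: growth inhibition of EB2 cells, read out with a cell viability assay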
Description: SANGER: Inhibition of human EB2 cell growth in a cell viability assay.

Kasumi 1 = test: cells; format: functional, cell-based, Homo sapiens; details: Homo sapiens, Kasumi 1;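 further: growth inhibition of human Kasumi-1 cells, read out by a cell viability assay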
Description: SANGER: Inhibition of human KASUMI-1 cell growth in a cell viability assay.

With `COc1cc(N2CCN(C)CC2)ccc1Nc1ncc2c(n1)N(C)c1ccccc1C(=O)N2C` the IC50 (SCC-3) was > 8 µM, the IC50 (Raji) was > 8 µM and the IC50 (NCI-H2081) was > 8 µM. For the same compound, the IC50 (ECC4) was > 8 µM, the IC50 (RPMI 8402; read-out: IC50) was 4.5 µM and the IC50 (PF-382) was 4.94 µM. For the same compound, the IC50 (NCI-H2196) was > 8 µM, the IC50 (TE-15) was > 8 µM and the IC50 (REH) was > 8 µM. For the same compound, the IC50 (KARPAS-422) was > 8 µM, the IC50 (EB2) was 2.82 µM and the IC50 (Kasumi 1) was > 8 µM.
In the case of `COc1cc2ncn(-c3cc(OCc4ccccc4S(C)(=O)=O)c(C#N)s3)c2cc1OC` [GSK-319347A], the IC50 (SCC-3) is reported as > 5 µM, the IC50 (Raji) is reported as > 5 µM and the IC50 (NCI-H2081) is reported as > 5 µM. For the same compound, the IC50 (ECC4) was > 5 µM, the IC50 (RPMI 8402; read-out: IC50) was > 5 µM and the IC50 (PF-382) was > 5 µM. The IC50 (NCI-H2196) was > 5 µM, the IC50 (TE-15) was > 5 µM and the IC50 (REH) was > 5 µM. For the same compound, the IC50 (KARPAS-422) was > 5 µM, the IC50 (EB2) was > 5 µM and the IC50 (Kasumi 1) was > 5 µM.
For `COc1cc2ncn(-c3cc(OCc4ccccc4C(F)(F)F)c(C(N)=O)s3)c2cc1OC` [GW843682X], the IC50 (SCC-3) was 0.0487 µM, the IC50 (Raji) was > 0.256 µM and the IC50 (NCI-H2081) was > 0.256 µM. The IC50 (ECC4) was > 0.256 µM, the IC50 (RPMI 8402; read-out: IC50) was 0.00467 µM and the IC50 (PF-382) was 0.0334 µM. The IC50 (NCI-H2196) was > 0.256 µM, the IC50 (TE-15) was 0.0108 µM and the IC50 (REH) was > 0.256 µM. For the same compound, the IC50 (KARPAS-422) was 0.21 µM, the IC50 (EB2) was > 0.256 µM and the IC50 (Kasumi 1) was > 0.256 µM.
In the case of `CC(=O)O[C@H]1C(=O)[C@@]2(C)[C@H]([C@H](OC(=O)c3ccccc3)[C@]3(O)C[C@H](OC(=O)[C@H](O)[C@@H](NC(=O)c4ccccc4)c4ccccc4)C(C)=C1C3(C)C)[C@]1(OC(C)=O)CO[C@@H]1C[C@@H]2O` [PACLITAXEL], the IC50 (SCC-3) is reported as 0.012 µM, the IC50 (Raji) is reported as > 0.102 µM and the IC50 (NCI-H2081) is reported as > 0.102 µM. The IC50 (ECC4) was > 0.102 µM, the IC50 (RPMI 8402; read-out: IC50) was 0.0126 µM and the IC50 (PF-382) was 0.0238 µM. The IC50 (NCI-H2196) was > 0.102 µM, the IC50 (TE-15) was 0.000287 µM and the IC50 (REH) was > 0.102 µM. The IC50 (KARPAS-422) was 0.0565 µM, the IC50 (EB2) was > 0.102 µM and the IC50 (Kasumi 1) was > 0.102 µM.
In the case of `N[C@@H](CSC(c1ccccc1)(c1ccccc1)c1ccccc1)C(=O)O` [S-TRITYL-L-CYSTEINE], the IC50 (SCC-3) is reported as 1.26 µM, the IC50 (Raji) is reported as 3.6 µM and the IC50 (NCI-H2081) is reported as > 5.12 µM. For the same compound, the IC50 (ECC4) was > 5.12 µM, the IC50 (RPMI 8402; read-out: IC50) was 1.28 µM and the IC50 (PF-382) was 1.67 µM. For the same compound, the IC50 (NCI-H2196) was > 5.12 µM, the IC50 (TE-15) was 1.02 µM and the IC50 (REH) was > 5.12 µM. For the same compound, the IC50 (KARPAS-422) was 1.2 µM, the IC50 (EB2) was > 5.12 µM and the IC50 (Kasumi 1) was > 5.12 µM.
With `CC[C@H](CO)Nc1nc(NCc2ccccc2)c2ncn(C(C)C)c2n1` [SELICICLIB] the IC50 (SCC-3) was 14.3 µM, the IC50 (Raji) was 13.8 µM and the IC50 (NCI-H2081) was > 16 µM. The IC50 (ECC4) was > 16 µM, the IC50 (RPMI 8402) was 13.6 µM and the IC50 (PF-382) was > 16 µM. For the same compound, the IC50 (NCI-H2196) was > 16 µM, the IC50 (TE-15) was > 16 µM and the IC50 (REH) was > 16 µM. The IC50 (KARPAS-422) was 9.96 µM, the IC50 (EB2) was > 16 µM and the IC50 (Kasumi 1) was > 16 µM.
In the case of `CCN(CC)CCNC(=O)c1c(C)[nH]c(/C=C2\C(=O)Nc3ccc(F)cc32)c1C` [SUNITINIB], the IC50 (SCC-3) is reported as 2.83 µM, the IC50 (Raji) is reported as > 8 µM and the IC50 (NCI-H2081) is reported as > 8 µM. The IC50 (ECC4) was > 8 µM, the IC50 (RPMI 8402; read-out: IC50) was 2.34 µM and the IC50 (PF-382) was 3.45 µM. For the same compound, the IC50 (NCI-H2196) was > 8 µM, the IC50 (TE-15) was 0.508 µM and the IC50 (REH) was > 8 µM. For the same compound, the IC50 (KARPAS-422) was 7.57 µM, the IC50 (EB2) was > 8 µM and the IC50 (Kasumi 1) was > 8 µM.
